Test results: patent publication US5736529A, “Use of NAD-related compounds in the treatment of neural trauma to inhibit neurodegeneration” (priority 1996, dated 1998)
Like-named read-outs stand apart in the source and are kept apart here.

Key:
[1] = test system: DNA in brain regions of C57BL/6 mice; assay: Second experiment, tBuOOH induced DNA fragmentation (FIG. 2, FIG. 3); format: in vivo, mouse (male C57BL/6)
Experimental: A second experiment was conducted to measure the degree of DNA fragmentation. […] Male C57BL/6 mice, of ages 2, 8 or 24 months old, were treated with tBuOOH ICV. Mice in the 20 minute group were treated with 110 mg/kg of tBuOOH and maintained for 20 minutes until brains were removed and analyzed for DNA fragmentation. This dose of tBuOOH induces cellular necrosis in a number of brain regions. Mice in the 48 hour group were given 22 mg/kg of tBuOOH and maintained for 48 hours. This dose of tBuOOH induces apoptosis and a small amount of necrosis in a number of brain regions.

[2] = test system: DNA in brain regions of C57BL/6 mice; conditions: for DNA fragmentation, low dose: 21.9 mg/kg
Experimental: 24 month old C57BL/6 mice were divided into 3 groups of 3 mice each. One group was the control. A second group of mice was treated ICV with 109.7 mg/kg t-BuOOH and then sacrificed 20 minutes later. A third group of mice were treated ICV with 21.9 mg/kg t-BuOOH and then sacrificed 48 hours later. […] The brains were removed from the treated mice and were sectioned into the following six regions: cortex, striatum, hippocampus, thalamus, midbrain and cerebellum. DNA damage has been expressed as a ratio of the damaged DNA to the total DNA per gram of tissue.
DNA fragmentation was assessed in […] samples of tissue from a brain region. A volume of 0.2 ml of ice cold lysing buffer (10 mM Tris-HCl, pH 7.5, 1 mM EDTA, and 0.2% Triton X-100) was added to each section, which was then centrifuged at 12,000 g for 25 minutes to separate the intact from the fragmented DNA. The supernatant (containing the fragmented DNA) was transferred to a separate tube. 0.2 ml of the lysing buffer was added to the pellet with sonication for 10 seconds. The amount of DNA in the supernatant and pellet fractions was determined by a fluorimetric method, using the dye Hoechst 33258. DNA damage is presented as the ratio of DNA in the supernatant to the total DNA in the pellet and supernatant per gram of tissue^17.
8 month old mice were divided into 4 groups (n=5 each). Group 1 was the control. Mice in group 2 were treated with 109.7 mg/kg t-BuOOH and then sacrificed 20 minutes later. […] The same procedures were performed as with the 24 month old mice.

[3] = test system: C57BL/6 mice; assay: Behavior and survival of mice after ICV tBuOOH; format: in vivo, mouse (male C57BL/6)
Experimental: In general male C57BL/6 mice (2, 8 or 24 months old) were anesthetized with ketamine and xylazine (200 and 2 mg/kg, ip). They were injected ICV with tBuOOH in doses of approximately 22 or 110 mg/kg. This amounts to 1 or 5 μl of a 70% solution of tBuOOH injected slowly into a lateral cerebral ventricle. A mouse brain weighs about 400 mg. […] Animals recovered from anesthesia about 30 minutes or so after tBuOOH administration. […] Low dose mice survived for 48 hours or more.

[4] = test system: DNA; assay: EPR detection of radicals on mixing DNA and tBuOOH in the presence of DMPO
Text: Therefore, DNA fragmentation is produced following HO. and other radicals induced DNA damage. Necrotic degeneration probably occurs within the first few hours after tBuOOH administration.

[5] = test system: NAD; conditions: 110 mg/kg ICV; 8 month old mice
Experimental: Male C57 B 1/6 mice, 8 months old, were treated ICV with tBuOOH (110 mg/kg) and maintained for 2, 5, 20 or 120 minutes. Anesthetized tBuOOH treated mice were immersed in liquid nitrogen to freeze their brains. The frozen brains were removed and dissected over dry ice. The brain regions were homogenized and analyzed by HPLC to determine NAD, NADH, NADP and NADPH levels as described previously. It is very important to stabilize the pyridine dinucleotides to prevent artifactual oxidation. NAD and NADP were stabilized by homogenization of brain regions in a cyanide containing solution. The cyanide reacts with the compounds forming cyano adducts that are stable. NADPH and NADH were stabilized by homogenizing brain regions in basic solution. NADPH and NADH are stable in base. Fortunately, the cyanide reaction proceeds optimally in base. Therefore, use of basic cyanide solutions during the homogenization produced optimal stabilization of NAD, NADP, NADH and NADPH. Following extraction with chloroform, centrifugation at 12,000 g for 5 minutes at 5° C., and filtration through 0.45μ positively charged nylon filters to remove DNA, the supernatants were injected onto a reverse phase HPLC column ("REXCHROME" ODS 5μ, Regis, Morton Grove, Ill.). Fluorescence detection (330 nm, excitation, 460 nm emission) was used to detect fluorescent NADH, NADPH and the cyano adducts of NAD and NADP.

[6] = test system: apoptotic cells in brain; conditions: 21.9 mg/kg ICV; 48 hours; most abundant in thalamus and pons
Experimental: The purpose of the apoptosis staining was to identify individual cells that may have undergone apoptosis. Residues of digoxigenin nucleotide were added to the DNA by an enzyme terminal deoxynucleotidyl transferase (TdT) which catalyzes the addition of deoxyribonucleotide triphosphate to the 3'-OH end of single and double stranded DNA. Thus the targets for labeling are the numerous new 3'-OH DNA ends generated by DNA fragmentation, easily observable in morphologically identifiable nuclei and apoptotic bodies. The sections were then incubated with an antibody to digoxigenin residues. The antibody was coupled to peroxidase allowing visualization with 3,3'-diaminobenzidine. Other sections were stained with cresyl violet.
A dose of 21.9 mg/kg of tBuOOH was administered ICV to C57BL/6 mice. The mice were anesthetized 48 hours after the tBuOOH administration and perfused through the left cardiac ventricle with 0.175M sodium phosphate and 0.155M sodium chloride (pH 7.5, PBS), then with 4% formaldehyde and 0.2% glutaraldehyde in PBS for six minutes with each solution at room temperature. The brains were then removed from the cranium after 2 hours of fixation and sliced coronally into 50μ sections with a vibrating microtome.
In order to detect individual cells undergoing apoptosis, the In Situ Apoptosis Detection Kit, (Oncor, Gaithersburg, Md.) was used. […]

[7] = test system: 24 month old mice; conditions: 24 month old mice; 21.9 mg/kg t-BuOOH only
[8] = test system: glutathione peroxidase; conditions: cited from earlier work
[9] = in vivo; cited from earlier work
[10] = 8 month old mice, 109.7 mg/kg t-BuOOH, 20 min
[11] = 8 month old mice, 109.7 mg/kg t-BuOOH, 20 min, * p<0.05 vs control
[12] = 24 month old mice, 21.9 mg/kg t-BuOOH ICV, 48 hours, * p<0.05 vs control
[13] = 24 month old mice, 109.7 mg/kg t-BuOOH ICV, 20 min, * p<0.05 vs control

In the case of CC(C)(C)OO [tBuOOH, t-butylhydroperoxide], the “DNA fragmentation in the cerebellum” value ([1]; 2, 8 and 24 month old mice, 48 hours) is reported as “increased significantly”, the “DNA fragmentation in the cortex” value ([1]; 2 and 8 month old mice) is reported as “no increase in DNA fragmentation in the cortex” and the “DNA fragmentation in the striatum, midbrain and hippocampus” value ([1]; 2 month old mice) is reported as “increased DNA fragmentation”. The “tBuOOH induced necrosis in the thalamus at 20 minutes” value ([1]; 8 and 24 month old vs 2 month old mice) was 8 and 24 month old mice are more sensitive than 2 month old mice, the “DNA fragmentation in the cortex” value ([1]; 24 month old mice, also found in the hippocampus) was “robust increase in DNA fragmentation in the cortex” and the “apoptosis induced DNA fragmentation in the thalamus” value ([1]; 48 hours after tBuOOH) was “found only in 24 month old mice”. For the same molecule, the “time of appearance of DNA fragments in the brain” value ([1]; after tBuOOH administration) was at most 2 min, the “DNA fragmentation, low dose” value ([2]; 8 month old mice) was “significantly higher DNA fragmentation values were seen only in the cerebellum” and the “DNA fragmentation, low dose” value ([2]; 24 month old mice) was “significant increases in DNA fragmentation were observed in almost all brain regions (except the striatum)”. The “DNA fragmentation in the cortex or hippocampus” value ([2]; 109.7 mg/kg, 8 month old mice) was “no significant increase in DNA fragmentation”, the “DNA fragmentation in many brain regions” value ([2]; 109.7 mg/kg, 24 and 8 month old mice) was “Significant DNA fragmentation” and the “DNA fragmentation, cortex” value [2, 10] was 0.83 ± 0.14 per gram of tissue. For the same molecule, the “DNA fragmentation, hippo” value [2, 10] was 0.768 ± 0.16 per gram of tissue, the “DNA fragmentation, cerebellum” value [2, 11] was 1.16 ± 0.15 per gram of tissue and the “DNA fragmentation, midbrain” value [2, 11] was 2.37 ± 0.43 per gram of tissue. The “DNA fragmentation, striatum” value [2, 11] was 2.33 ± 0.46 per gram of tissue, the “DNA fragmentation, thala” value [2, 11] was 2.65 ± 0.88 per gram of tissue and the “DNA fragmentation in the cerebellums (FIG. 5)” value ([2]; 8 month old mice, p<0.05) was “Statistically significantly different from control values and tBuOOH with nicotinamide”. For the same molecule, the “DNA fragmentation, striatum” value ([2]; 24 month old mice, 21.9 mg/kg t-BuOOH ICV, 48 hours) was 1.94 ± 0.31 per gram of tissue, the “DNA fragmentation, cerebellum” value [2, 12] was 1.71 ± 0.45 per gram of tissue and the “DNA fragmentation, cortex” value [2, 12] was 1.55 ± 0.19 per gram of tissue. The “DNA fragmentation, hippo” value [2, 12] was 1.43 ± 0.23 per gram of tissue, the “DNA fragmentation, midbrain” value [2, 12] was 2.04 ± 0.53 per gram of tissue and the “DNA fragmentation, thala” value [2, 12] was 2.13 ± 0.31 per gram of tissue. For the same molecule, the “DNA fragmentation, cerebellum” value [2, 13] was 1.84 ± 0.45 per gram of tissue, the “DNA fragmentation, cortex” value [2, 13] was 1.73 ± 0.23 per gram of tissue and the “DNA fragmentation, hippo” value [2, 13] was 1.44 ± 0.20 per gram of tissue. For the same molecule, the “DNA fragmentation, midbrain” value [2, 13] was 2.77 ± 0.65 per gram of tissue, the “DNA fragmentation, striatum” value [2, 13] was 2.46 ± 0.33 per gram of tissue and the “DNA fragmentation, thala” value [2, 13] was 2.52 ± 0.43 per gram of tissue. For the same molecule, the “behavior of low dose animals” value ([3]; about 22 mg/kg ICV) was “move about freely and resemble mice treated ICV with 0.9% saline”, the “appearance of high dose mice and death” value ([3]; about 110 mg/kg ICV) was “frequently appeared inactive until death” and the “time of death after treatment” value ([3]; high dose (about 110 mg/kg ICV)) was “about 2 hours”. The survival ([3]; low dose (about 22 mg/kg ICV)) was at least 48 h, the “radicals produced by mixing DNA and tBuOOH” value [4] was “produces HO. and other radicals” and the “NAD levels after tBuOOH” value [5] was “slowly and partially depleted”. The “apoptotic cells in the brain” value [6] was “Apoptotic cells were found in many brain regions, but were most abundant in the thalamus and pons”, the deaths [7] was “Three out of six” and the “detoxification by glutathione peroxidase” value [8] was “detoxified by glutathione peroxidase”. For the same molecule, the brain permeation [9] was “readily permeate throughout the brain”.
